# Tested on: Escherichia coli (ATCC25922) or Staphylococcus aureus (ATCC25923)
# Test: Antibacterial MIC, microdilution method in Mueller-Hinton medium
# Type: cell-based
# Conditions: Escherichia coli, 18 h, MIC in E. coli or S. aureus; two-fold serial dilutions 64 to 0.5 μg/ml in duplicate; 18 hours of incubation at 35° C.; read-out: Potency (MIC)
# Procedure: The antibacterial activity of the Formula I compounds was evaluated against standard bacterial strains by determining the minimal inhibitory concentration (MIC) to block growth. Each drug was assayed by the microdilution method in Mueller-Hinton medium, as recommended by the National Committee for Clinical Laboratory Standards. Approved Standard M7-A5: Methods for Dilution Antimicrobial Susceptibility Tests for Bacteria That Grow Aerobically 5th Ed. (National Committee for Clinical Laboratory Standards, Wayne, Pa., 2000). The tested bacterial strains included Escherichia coli (American Type Collection ATCC25922), Staphylococcus aureus (ATCC25923), and Pseudomonas aeruginosa (ATCC27853). Two-fold serial dilutions of each compound ranging from 64 to 0.5 μg/ml were tested in duplicate. The MIC was determined as the lowest concentration of each compound that prevented bacterial growth after 18 hours of incubation at 35° C. […] The mass of each compound in the Table was confirmed by LC-MS.
row,MIC [µg/mL],Structure (SMILES)
1,< 64,"Cc1ccc(Nc2nc(N3C[C@H](N)C[C@H](N)C3)nc(N3C[C@H](N)C[C@H](N)C3)n2)cc1C.Cl [N-(3,4-dimethyl-phenyl)-4,6-Bis-((3R,5S)-3,5-ddiamino-piperidin-1-yl)-[1,3,5]triazine-2-amine]"
2,< 16,"Cl.O=C(Nc1ccc(Nc2nc(N3CCCCC3)nc(N3CCCCC3)n2)cc1Cl)c1ccc(C(F)(F)F)nc1O [N-{3-chlorro-4-[(2-hydroxy-6-trifluoromethyl-pyridine-3-carbonyl)-amino]-phenyl}-4,6-Bis-((3R,5S)-3,5-diamino-piperidin-1-yl)-[1,3,5]triazine-2-amine]"
3,< 64,"N[C@@H]1C[C@H](N)CN(c2nc(Nc3ccc(NC(=O)c4cc5cccc(O)c5cc4O)cc3)nc(N3C[C@H](N)C[C@H](N)C3)n2)C1 [N-{4-[(3,5-dihydroxy-naphthalene-2-carbonyl)-amino]-phenyl}-4,6-Bis-((3R,5S)-3,5-diamino-piperidin-1-yl)-[1,3,5]triazine-2-amine]"
4,< 16,"Cc1ccc(S(=O)(=O)NC(Cc2ccccc2)C(=O)Nc2ccc(Nc3nc(N4CCCCC4)nc(N4CCCCC4)n3)cc2O)cc1.Cl [N-{3-hydroxy-4-[3-phenyl-2-(toluene-4-sulfonylamino)-propionylamino]-phjenyl}-4,6-Bis-((3R,5S)-3,5-diamino-piperidin-1-yl)-[1,3,5]triazine-2-amine]"
5,< 64,"Cl.O=C(Nc1cc(C(F)(F)F)ccc1Cl)c1ccc(Nc2nc(N3CCCCC3)nc(N3CCCCC3)n2)cc1O [N-[4-(2-chloro-5-trifluoromethyl-phenylcarbamoyl)-3-hydroxy-phenyl]-4,6-Biss-((3R,5S)-3,5-diamino-piperidin-1-yl)-[1,3,5]triazine-2-amine]"
6,< 16,"Cl.NC1C[C@@H](N)CN(c2nc(Nc3ccc(NC(=O)c4cc(Cl)ccc4O)cc3)nc(N3C[C@H](N)C[C@H](N)C3)n2)C1 (stereo in doubt) [N-[4-(5-chloro-2-hydroxy-benzoylamino)-phenyl]-4,6-Bis-((3R,5S)-3,5-diamino-piperidin-1-yl)-[1,3,5]triazine-2-amine]"
7,> 64,"CCN(C)CCNC(=O)c1ccc(NC(=O)CC(=O)c2ccc(Nc3nc(N4CCCCC4)nc(N4CCCCC4)n3)cc2)cc1.Cl [N-(4-{2-[4-(2-diethylamino-ethylcarbamoyl)-phhenylcxarbamoyl]-acetyl}-phenyl)-4,6-Bis-((3R,5S)-3,5-diamino-piperidin-1-yl)-[1,3,5]triazine-2-amine]"
8,> 64,"Cl.NC(=O)[C@H](CO)Nc1nc(N2C[C@H](N)C[C@H](N)C2)nc(N2C[C@H](N)C[C@H](N)C2)n1 [(S)-2-[4-((3R,5S)-3,5-Diamino-piperidin-1-yl)-6-((3S,5R)-3,5-diamino-piperidin-1-yl)-[1,3,5]triazin-2-ylamino]-3-hydroxy-propionamide]"
9,< 64,"Cl.NC1CCCN(c2nc(Nc3ccc(Cl)c(Cl)c3)nc(N3CCCCC3)n2)C1 [(3R,5S)-1-[4-(3-Amino-piperidin-1-yl)-6-(3,4-dichloro-phenylammino)-[1,3,5]triazin-22-yl]-piperidine-3,5-diamine]"
10,< 64,"N=C(N)Nc1ccc(Nc2nc(N3CCCCC3)nc(N3CCCCC3)n2)cc1 [N-(4-quanidino-phenyl)-4,6-Bis-((3R,5S)-3,5-diamino-piperidin-1-yl)-[1,3,5]triazine-2-amine]"
11,> 64,"Cl.N[C@@H]1C[C@H](N)CN(c2nc(Nc3ccccc3)nc(N3C[C@H](N)C[C@H](N)C3)n2)C1 [N-phenyl-44,6-Bis-((3R,5S)-3,5-diamino-piperidin-1-yl)-[1,3,5]triazine-2-amine]"

row,Structure (SMILES),MIC [µg/mL]
1,"CC(=O)Nc1ccc(Nc2nc(N3C[C@H](N)C[C@H](N)C3)nc(N3C[C@H](N)C[C@H](N)C3)n2)cc1 [drawing 178, N-(4-acetylamino-phenyl)-4,6-Bis-((3R,5S)-3,5-diamino-piperidin-1-yl)-[1,3,5]triazine-2-amine]",> 64

# Same assay, conditions: Escherichia coli, 18 h, read-out: Potency (MIC)
row,Structure (SMILES),MIC [µg/mL]
1,"N[C@@H]1C[C@H](N)CN(c2nc(Nc3ccc(-n4c5ccccc5c5ccccc54)cc3)nc(N3C[C@H](N)C[C@H](N)C3)n2)C1 [N-(4-carbazol-9-yl-phenyl)-4,6-Bis-((3R,5S)-3,5-diamino-piperidin-1-yl)-[1,3,5]triazine-2-amine]",< 16
2,"NC(=O)c1ccc(NC(=O)c2ccc(Nc3nc(N4C[C@H](N)C[C@H](N)C4)nc(N4C[C@H](N)C[C@H](N)C4)n3)cc2O)cc1 [N-[4-(4-carbamoyl-phenylcarbamoyl)-3-hydroxy-phenyl]-4,6-Bis-((3R,5S)-3,5-diamino-piperidin-1-yl)-[1,3,5]triazine-2-amine]",> 64
3,"NC[C@H]1[C@@H](O)CCN1c1nc(Nc2ccc(NC(=O)c3ccc4ccccc4c3O)cc2)nc(N2C[C@H](N)C[C@H](N)C2)n1 [1-Hydroxy-naphthalene-2-carboxylic acid {4-[4-((2S,3S)-2-aminomethyl-3-hydroxy-pyrrolidin-1-yl)-6-((3R,5S)-3,5-diamino-piperidin-1-yl)-[1,3,5]triazin-2-ylamino]-phenyl}-amide]",< 16
4,"CC(=O)c1ccc(Nc2nc(N3C[C@H](N)C[C@H](N)C3)nc(N3C[C@@H](O)[C@@H](O)C3)n2)cc1 [1-{4-[4-((3R,5S)-3,5-Diamino-piperidin-1-yl)-6-((3R,4S)-3,4-dihydroxy-pyrrolidin-1-yl)-[1,3,5]triazin-2-ylamino]-phenyl}-ethanone]",> 64
5,"NCCN(CCN)c1nc(Nc2ccc(NC(=O)c3ccc4ccccc4c3O)cc2)nc(N2C[C@H](N)C[C@H](N)C2)n1 [1-Hydroxy-naphthalene-2-carboxylic acid {4-[4-[bis-(2-amino-ethyl)-amino]-6-((3R,5S)-3,5-diamino-piperidin-1-yl)-[1,3,5]triazin-2-ylamino]-phenyl}-amide]",< 16
6,"COc1nc(Nc2ccc3c(c2)C(=O)c2ccccc2-3)nc(N2C[C@H](N)C[C@H](N)C2)n1 [2-[4-((3R,5S)-3,5-Diamino-piperidin-1-yl)-6-methoxy-[1,3,5]triazin-2-ylamino]-fluoren-9-one]",> 64
7,"Cc1cc(Nc2nc(N3C[C@H](N)C[C@H](N)C3)nc(N3C[C@H](N)C[C@H](N)C3)n2)ccc1[N+](=O)[O-] [N-(3-methyl-4-nitro-phenyl)-4,6-Bis-((3R,5S)-3,5-diamino-piperidin-1-yl)-[1,3,5]triazine-2-amine]",< 64
8,"COc1nc(Nc2ccc(C(=O)CC(=O)Nc3ccc(F)c(F)c3)cc2)nc(N2C[C@H](N)C[C@H](N)C2)n1 [3-{4-[4-((3R,5S)-3,5-Diamino-piperidin-1-yl)-6-methoxy-[1,3,5]triazin-2-ylamino]-phenyl}-N-(3,4-difluoro-phenyl)-3-oxo-propionamide]",< 16
9,"Cc1noc(NS(=O)(=O)c2ccc(Nc3nc(N4C[C@H](N)C[C@H](N)C4)nc(N4C[C@H](N)C[C@H](N)C4)n3)cc2)c1C [N-[4-(3,4-dimethyl-isoxazol-5-ylsulfamoyl)-phenyl]-4,6-Bis-((3R,5S)-3,5-diamino-piperidin-1-yl)-[1,3,5]triazine-2-amine]",> 64
10,"N[C@@H]1C[C@H](N)CN(c2nc(Nc3ccc(NC(=O)c4ccc(N5Cc6ccccc6C5)cc4O)c(O)c3)nc(N3C[C@H](N)C[C@H](N)C3)n2)C1 [N-{4-[4-(1,3-dihydro-isoindol-2-yl)-2-hydroxy-benzoylamino]-3-hydroxy-phenyl}-4,6-Bis-((3R,5S)-3,5-diamino-piperidin-1-yl)-[1,3,5]triazine-2-amine]",< 64
11,"COc1ccc(O)c(C(=O)Nc2ccc(Nc3nc(N4C[C@H](N)C[C@H](N)C4)nc(N4C[C@H](N)C[C@H](N)C4)n3)cc2)c1 [N-[4-(2-hydroxy-5-methoxy-benzoylamino)-phenyl]-4,6-Bis-((3R,5S)-3,5-diamino-piperidin-1-yl)-[1,3,5]triazine-2-amine]",< 64
12,"N[C@@H]1C[C@H](N)CN(c2nc(Nc3ccc(N4CCOCC4)cc3)nc(N3C[C@H](N)C[C@H](N)C3)n2)C1 [N-(4-morpholin-4-yl-phenyl)-4,6-Bis-((3R,5S)-3,5-diamino-piperidin-1-yl)-[1,3,5]triazine-2-amine]",> 64
13,"CCN(CC)c1ccc(Nc2nc(N3C[C@H](N)C[C@H](N)C3)nc(N3C[C@H](N)C[C@H](N)C3)n2)cc1 [N-(4-diethylamino-phenyl)-4,6-Bis-((3R,5S)-3,5-diamino-piperidin-1-yl)-[1,3,5]triazine-2-amine]",> 64
14,"NC[C@@H]1C[C@H](CN)CN(c2nc(Nc3ccc(C(=O)Oc4ccccc4)c(O)c3)nc(N3C[C@H](N)C[C@H](N)C3)n2)C1 [4-[4-((3R,5S)-3,5-Bis-(aminomethyl)-piperidin-1-yl)-6-((3R,5S)-3,5-diamino-piperidin-1-yl)-[1,3,5]triazin-2-ylamino]-2-hydroxy-benzoic acid phenyl ester]",< 64

# Same assay, conditions: MIC in E. coli or S. aureus; two-fold serial dilutions 64 to 0.5 μg/ml in duplicate; 18 hours of incubation at 35° C.
row,Structure (SMILES),Potency (MIC)
1,"NC[C@@H]1C[C@H](N)CN1c1nc(Nc2ccc(NC(=O)C(=O)c3c[nH]c4ccccc34)c(O)c2)nc(N2C[C@H](N)C[C@H](N)C2)n1 [N-{4-[4-((2S,4S)-44-Amino-2-aminomethyl-pyrrolidin-1-yl)-6-((3R,5S)-3,5-diamino-piperidin-1-yl)-[1,3,5]triazin-2-ylamino]-2-hydroxy-phenyl}-2-(1H-indol-3-yl)-2-oxo-acetamide]",++ (++ means MIC<16 μg/ml in E. coli or S. aureus)

# From US7223759B2, “Antibacterial 3,5-diaminopiperidine-substituted aromatic and heteroaromatic compounds” (Anadys Pharmaceuticals, Inc., priority 2003, dated 2007)
